Patent US6489317B1, “Method for eradication of Helicobacter pylori” (priority 1998, dated 2002)

Tested on: H. pylori
Assay: E-test (epsilon test, AB Biodisc) antibiotic sensitivity of H. pylori cultured from patients
Assay type: cell-based, Helicobacter pylori
Text: The E-test is used as a graded antibiotic sensitivity detecting strip for examining resistance of H.pylori.

CO[C@H]1/C=C/O[C@@]2(C)Oc3c(C)c(O)c4c(c3C2=O)C2=NC3(CCN(CC(C)C)CC3)NC2=C(NC(=O)/C(C)=C\C=C\[C@H](C)[C@H](O)[C@@H](C)[C@@H](O)[C@@H](C)[C@H](OC(C)=O)[C@@H]1C)C4=O [Rifabutin]
E. Test Rifabutin (H. pylori isolate of each patient): < 0.002 µg/mL | E. Test Rifabutin Result (H. pylori isolate of each patient, Resistant/Sensitive): Sensitive | sensitivity of infection to rifabutin (all cases of H. pylori infection resistant to one or both of metronidazole and clarithromycin): sensitive
